Earlier results in patent US20030124112A1, “Use of a lacrophyl preparation in eye drops containing therpeutically active compounds” (priority 2000, published 2003).

Assays:
[1] = system: tear lysozyme; settings: dropped in the eye, glaucome
[2] = 0.0001% benzalkonium-chloride, in vitro

Compound	effect on amount of tear lysozyme [1]	effect on cells [2]
CC(C)(C)NCC(O)COc1cccc2c1CCC(=O)N2 (stereo not drawn) [cartelol]	decrease of the amount of tear lysozyme	–
CC(C)(C)NC[C@H](O)COc1nsnc1N1CCOCC1 [timolol]	decrease of the amount of tear lysozyme	–
benzalkonium-chloride	–	causes cell death
